# Assay results as given in patent EP0053325A1, “Antimicrobic triazole derivatives” (BAYER AG, priority 1980, dated 1982).
# Columns and labels:
# [1] = test system: Dermatophyten und Schimmelpilze; Hefen; experiment: Antimycotic in-vitro activity, serial dilution test; format: cell-based; details: Reihenverdünnungstest, 5 x 10^4 Keimen/ml Substrat, 20°C, 24 bis 96 Stunden; compared with prior-art compounds (A) and (B)
# Protocol: Die in-vitro-Prüfungen wurden im Reihenverdünnungstest mit Keiminokula von durchschnittlich 5 x 10^4 Keimen/ml Substrat durchgeführt. Als Nährmedium dienten • a) für Dermatophyten und Schimmelpilze: Sabourand's milieu d'épreuve • b) für Hefen: Fleischextrakt-Traubenzucker-Bouillon.
# Die Bebrütungstemperatur betrug 20°C, die Bebrütungsdauer lag bei 24 bis 96 Stunden.
# Candida = experiment: Antimycotic in-vivo activity (oral) in mouse candidosis; details: Mäuse SPF-CF1 infected i.v. with 1 - 2 x 10^6 Candida-Zellen, 50 - 100mg/ kg one hour before and seven hours after infection, survival, compared with (A) and (B)
# Protocol: Mäuse vom Typ SPF-CF1 wurden intravenös mit 1 - 2 x 10^6 logarithmisch wachsenden Candida-Zellen, die in physiologischer Kochsalzlösung suspendiert werden, infiziert. Eine Stunde vor und sieben Stunden nach der Infektion werden die Tiere mit jeweils 50 - 100mg/ kg Körpergewicht der Präparate oral behandelt.
# Unbehandelte Tiere starben 3 bis 6 Tage post infektionen. Die Ueberlebensrate am 6.Tag post infektionem betrug bei unbehandelten Kontrolltieren etwa 5 %. In diesem Test zeigen z.B. die erfindungsgemäßen Verbindungen 3, 9.
SMILES,antimykotische Wirkung [1],Wirkung (Candida)
CC(C)(C)C(O)/C(=C\c1ccc(C(F)(F)F)cc1Cl)n1cncn1 (stereo not drawn) [Beispiel 12],bessere antimykotische Wirkung als die aus dem Stand der Technik bekannten Verbindungen (A) und (B),bessere Wirkung als die aus dem Stand der Technik bekannten Verbindungen (A) und (B)
CC(C)(C)C(O)/C(=C\c1ccc([N+](=O)[O-])cc1)n1cncn1 (stereo not drawn) [Beispiel 10],bessere antimykotische Wirkung als die aus dem Stand der Technik bekannten Verbindungen (A) und (B),bessere Wirkung als die aus dem Stand der Technik bekannten Verbindungen (A) und (B)
CC(C)(C)C(O)/C(=C\c1ccc(C(F)(F)F)c(Cl)c1)n1cncn1 (stereo not drawn) [Beispiel 20],bessere antimykotische Wirkung als die aus dem Stand der Technik bekannten Verbindungen (A) und (B),–
CC(C)(C)C(O)/C(=C\c1ccc(C(F)(F)F)cc1)n1cncn1 (stereo not drawn) [Beispiel 18],bessere antimykotische Wirkung als die aus dem Stand der Technik bekannten Verbindungen (A) und (B),bessere Wirkung als die aus dem Stand der Technik bekannten Verbindungen (A) und (B)
CC(C)(C)C(O)/C(=C/c1ccc([N+](=O)[O-])cc1)n1cncn1 (stereo not drawn) [Beispiel 9],–,bessere Wirkung als die aus dem Stand der Technik bekannten Verbindungen (A) und (B)
CC(C)(C)C(O)/C(=C\c1ccc(OC(F)(F)F)cc1)n1cncn1 (stereo not drawn) [Beispiel 14],bessere antimykotische Wirkung als die aus dem Stand der Technik bekannten Verbindungen (A) und (B),bessere Wirkung als die aus dem Stand der Technik bekannten Verbindungen (A) und (B)
CC(C)(C)C(O)/C(=C\c1ccc(OC(F)(F)F)c(Cl)c1)n1cncn1 (stereo not drawn) [Beispiel 22],bessere antimykotische Wirkung als die aus dem Stand der Technik bekannten Verbindungen (A) und (B),–
"CC(C)(C)C(O)C(=Cc1ccc(C(F)(F)F)cc1)n1cncn1 (stereo not drawn) [Beispiel 3, 4,4-Dimethyl-2-(1,2,4-triazol-1-yl)-1-(4-trifluormethylphenyl)-1-penten-3-ol]",bessere antimykotische Wirkung als die aus dem Stand der Technik bekannten Verbindungen (A) und (B),bessere Wirkung als die aus dem Stand der Technik bekannten Verbindungen (A) und (B)
"CC(C)(C)C(O)/C(=C\c1ccccc1C(F)(F)F)n1cncn1 (stereo not drawn) [Beispiel 2, 4.4-Dimethyl-2-(1,2,4-triazol-1-yl)-1-(2-trifluormethylphenyl)-1-penten-3-ol]",bessere antimykotische Wirkung als die aus dem Stand der Technik bekannten Verbindungen (A) und (B),–
CC(C)(C)C(O)/C(=C\c1ccc(SC(F)(F)F)cc1)n1cncn1 (stereo not drawn) [Beispiel 16],bessere antimykotische Wirkung als die aus dem Stand der Technik bekannten Verbindungen (A) und (B),–
